Measurements: the Kinase Knowledgebase extract (Sharma et al. 2016)
≈ marks a conversion by molar mass, not a printed value.

target: EGFR (UniProt P00533)
Sequence (P00533 whole entry, looked up): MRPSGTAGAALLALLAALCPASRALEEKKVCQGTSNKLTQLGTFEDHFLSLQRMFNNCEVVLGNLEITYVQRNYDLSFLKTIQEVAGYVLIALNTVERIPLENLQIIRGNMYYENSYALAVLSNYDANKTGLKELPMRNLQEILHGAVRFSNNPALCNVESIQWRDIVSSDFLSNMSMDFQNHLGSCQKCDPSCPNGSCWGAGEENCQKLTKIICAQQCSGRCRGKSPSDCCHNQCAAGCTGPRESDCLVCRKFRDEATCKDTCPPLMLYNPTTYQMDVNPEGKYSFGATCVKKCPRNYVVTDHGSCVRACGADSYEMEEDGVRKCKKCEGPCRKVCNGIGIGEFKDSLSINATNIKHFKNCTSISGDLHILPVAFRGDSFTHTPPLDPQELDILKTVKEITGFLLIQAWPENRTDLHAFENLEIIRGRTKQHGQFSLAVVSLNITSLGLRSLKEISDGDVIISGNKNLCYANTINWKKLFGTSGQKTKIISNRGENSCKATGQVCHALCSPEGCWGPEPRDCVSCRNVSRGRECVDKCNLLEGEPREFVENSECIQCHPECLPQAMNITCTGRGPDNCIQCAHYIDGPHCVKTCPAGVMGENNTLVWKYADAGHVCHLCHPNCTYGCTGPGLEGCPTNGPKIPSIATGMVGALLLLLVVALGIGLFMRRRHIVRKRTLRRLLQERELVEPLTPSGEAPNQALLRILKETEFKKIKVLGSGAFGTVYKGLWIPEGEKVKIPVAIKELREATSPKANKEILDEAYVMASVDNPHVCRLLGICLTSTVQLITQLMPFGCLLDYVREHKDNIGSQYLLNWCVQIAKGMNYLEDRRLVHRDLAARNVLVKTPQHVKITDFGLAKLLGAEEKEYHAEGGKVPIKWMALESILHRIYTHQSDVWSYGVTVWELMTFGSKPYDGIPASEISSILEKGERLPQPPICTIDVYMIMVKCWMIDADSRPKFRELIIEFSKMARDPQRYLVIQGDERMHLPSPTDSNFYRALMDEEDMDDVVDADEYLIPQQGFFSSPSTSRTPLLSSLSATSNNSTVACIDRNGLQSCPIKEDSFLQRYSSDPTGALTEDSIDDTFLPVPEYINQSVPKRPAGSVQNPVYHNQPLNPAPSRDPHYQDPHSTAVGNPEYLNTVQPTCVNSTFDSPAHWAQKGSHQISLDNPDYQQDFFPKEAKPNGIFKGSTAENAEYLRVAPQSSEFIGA

`COc1cc(Nc2ncnc(-n3c(Nc4ccc(N(C)C)cc4)nc4ccccc43)n2)cc(OC)c1OC` and `COc1cc(Nc2ncnc(-n3c(Nc4cccc(C(N)=O)c4)nc4ccccc43)n2)cc(OC)c1OC` cannot be ordered by IC50: greater than 4.5 mg/L for the first, greater than 4.5 mg/L for the second.

`COc1cc(Nc2ncnc(Nc3ccc(OCC(=O)Nc4ccccc4)cc3)n2)cc(OC)c1OC` and `COc1cc(Nc2ncnc(Nc3ccc(C(=O)O)cc3)n2)cc(OC)c1OC` fall in the same range of IC50: 0.4 to 2.4 mg/L (≈ 0.796 to 4.78 µM) for the first, 0.4 to 2.4 mg/L (≈ 1.01 to 6.04 µM) for the second.

First: O=c1[nH]c2ccccc2n1-c1ncnc(Nc2cccc([N+](=O)[O-])c2)n1
Second: O=c1[nH]c2ccccc2n1-c1ncnc(Nc2cccc(-c3cnco3)c2)n1
The IC50 of the first is higher: greater than 4.5 mg/L for the first, 0.4 to 2.4 mg/L (≈ 1.08 to 6.46 µM) for the second.

Compared with `COC(=O)c1ccc(-c2cc(Nc3ncnc(NCCN4CCOCC4)n3)[nH]n2)cc1`, `COC(=O)c1ccc(-c2cc(Nc3ncnc(NCCN4CCNC4=O)n3)[nH]n2)cc1` is higher in IC50: 2.4 to 3.5 mg/L (≈ 5.65 to 8.25 µM) for the first, greater than 4.5 mg/L for the second.

`COc1cc(Nc2ncnc(-c3cccnc3Nc3cccc4c3CCCC4)n2)cc(OC)c1OC` and `COc1cc(Nc2ncnc(-c3cccnc3Nc3cccc(C(N)=O)c3)n2)cc(OC)c1OC` cannot be ordered by IC50: greater than 4.5 mg/L for the first, greater than 4.5 mg/L for the second.

`COc1cc(Nc2ncnc(-c3ccc(NCCCO)nc3)n2)cc(OC)c1OC` and `COc1cc(Nc2ncnc(-c3ccnc(NCCCO)c3)n2)cc(OC)c1OC` cannot be ordered by IC50: greater than 4.5 mg/L for the first, greater than 4.5 mg/L for the second.

Compared with `COC(=O)c1ccc(-c2cc(Nc3ncnc(Nc4ccc(N5CCOCC5)cc4)n3)[nH]n2)cc1`, `CCOC(=O)c1cccc(Nc2ncnc(Nc3cc(-c4ccc(C(=O)OC)cc4)n[nH]3)n2)c1` is higher in IC50: 3.5 to 4.5 mg/L (≈ 7.41 to 9.52 µM) for the first, greater than 4.5 mg/L for the second.

First: COc1cc(Nc2ncnc(-c3cccnc3Nc3ccc(C(C)=O)cc3)n2)cc(OC)c1OC
Second: COc1cc(Nc2ncnc(Nc3ccc(C(C)=O)cc3)n2)cc(OC)c1OC
The IC50 of the first is higher: greater than 4.5 mg/L for the first, 2.4 to 3.5 mg/L (≈ 6.07 to 8.85 µM) for the second.

`NC(=O)c1ccc(Nc2ncnc(-n3c(=O)[nH]c4ccccc43)n2)cc1` and `O=c1[nH]c2ccccc2n1-c1ncnc(Nc2ccc(-c3cnco3)cc2)n1` cannot be ordered by IC50: greater than 4.5 mg/L for the first, greater than 4.5 mg/L for the second.

`Cc1ccc(-c2cc(Nc3ncnc(Nc4cc(C)ccc4C)n3)[nH]n2)cc1` and `Cc1cccc(Nc2ncnc(Nc3cc(-c4ccccc4)n[nH]3)n2)c1` cannot be ordered by IC50: less than 0.4 mg/L for the first, less than 0.4 mg/L for the second.

`CC(C)(C)c1ccc(Nc2ncnc(-n3c(N)nc4ccccc43)n2)cc1` and `CCN(CC)CCOc1cc(Nc2ncnc(-n3c(N)nc4ccccc43)n2)ccc1OC` cannot be ordered by IC50: greater than 4.5 mg/L for the first, greater than 4.5 mg/L for the second.

First: COc1cc(Nc2ncnc(-n3ncc(-c4ccccc4)c3N)n2)cc(OC)c1OC
Second: COc1cc(Nc2ncnc(Nc3nc(-c4ccccc4)cs3)n2)cc(OC)c1OC
The IC50 of the first is lower: 2.4 to 3.5 mg/L (≈ 5.72 to 8.34 µM) for the first, greater than 4.5 mg/L for the second.

`COc1cc(Nc2ncnc(-n3c(NCc4ccc(C)cc4)nc4ccccc43)n2)cc(OC)c1OC` and `COc1ccc(CNc2nc3ccccc3n2-c2ncnc(Nc3cc(OC)c(OC)c(OC)c3)n2)cc1` cannot be ordered by IC50: greater than 4.5 mg/L for the first, greater than 4.5 mg/L for the second.

`CN(c1cccc(Cl)c1)c1ncnc(Nc2cccc(Cn3ccnn3)c2)n1` and `Cc1cccc(Nc2ncnc(N(C)c3cccc(Cl)c3)n2)c1` cannot be ordered by IC50: less than 0.4 mg/L for the first, less than 0.4 mg/L for the second.

Compared with `COc1cc(Nc2ncnc(-n3c(NCc4ccccc4)nc4ccccc43)n2)cc(OC)c1OC`, `COc1cc(Nc2ncnc(-n3c(NC(CO)c4ccccc4)nc4ccccc43)n2)cc(OC)c1OC` (stereo not drawn) is higher in IC50: 2.4 to 3.5 mg/L (≈ 4.96 to 7.24 µM) for the first, greater than 4.5 mg/L for the second.

`COc1cc(Nc2ncnc(-n3c(=O)[nH]c4ccccc43)n2)cc(OCCN2CCOCC2)c1OC` and `COc1cc(Nc2ncnc(-n3c(N)nc4ccccc43)n2)cc(OCCN2CCOCC2)c1OC` cannot be ordered by IC50: greater than 4.5 mg/L for the first, greater than 4.5 mg/L for the second.

Compared with `NC(=O)c1ccc(Nc2ncnc(Nc3cc(-c4ccco4)n[nH]3)n2)cc1`, `CCOC(=O)Cc1ccc(Nc2ncnc(Nc3cc(-c4ccco4)n[nH]3)n2)cc1` is lower in IC50: 2.4 to 3.5 mg/L (≈ 6.62 to 9.66 µM) for the first, 0.4 to 2.4 mg/L (≈ 0.987 to 5.92 µM) for the second.

Compared with `CC(C)(C)c1cc(Nc2ncnc(Cl)n2)[nH]n1`, `c1ccc(CNc2ncnc(Nc3cc(-c4ccco4)n[nH]3)n2)nc1` is lower in IC50: greater than 4.5 mg/L for the first, 0.4 to 2.4 mg/L (≈ 1.2 to 7.18 µM) for the second.

`COc1cc(Nc2ncnc(-n3c(NCCc4ccccn4)nc4ccccc43)n2)cc(OC)c1OC` and `COc1cc(Nc2ncnc(-n3c(NCc4ncc[nH]4)nc4ccccc43)n2)cc(OC)c1OC` cannot be ordered by IC50: greater than 4.5 mg/L for the first, greater than 4.5 mg/L for the second.

First: COc1cc(Nc2ncnc(Nc3ccc(NC(C)=O)c(C(F)(F)F)c3)n2)cc(OC)c1OC
Second: COc1cc(Nc2ncnc(Nc3cccc(O)c3)n2)cc(OC)c1OC
The IC50 of the first is higher: 2.4 to 3.5 mg/L (≈ 5.02 to 7.32 µM) for the first, less than 0.4 mg/L for the second.

Compared with `COc1cc(Nc2ncnc(Nc3ccc(N(C)C)cc3)n2)cc(OC)c1OC`, `COc1cc(Nc2ncnc(Nc3cc(Cl)ccc3C)n2)cc(OC)c1OC` is lower in IC50: 2.4 to 3.5 mg/L (≈ 6.05 to 8.83 µM) for the first, less than 0.4 mg/L for the second.

`CN(c1cccc(Cl)c1)c1ncnc(Nc2ccc(OCCO)cc2)n1` and `CN(c1cccc(Cl)c1)c1ncnc(Nc2ccc(S(C)(=O)=O)cc2)n1` cannot be ordered by IC50: less than 0.4 mg/L for the first, less than 0.4 mg/L for the second.

Compared with `COCCOc1ccc(Nc2ncnc(Nc3ccc(C)c(O)c3)n2)cc1OCCOC`, `COCCOc1cc(Nc2ncnc(Nc3ccc(C)c(O)c3)n2)ccc1OC` is lower in IC50: 0.4 to 2.4 mg/L (≈ 0.906 to 5.44 µM) for the first, less than 0.4 mg/L for the second.

First: COC(=O)C(c1ccccc1)c1ncnc(Nc2cc(OC)c(OC)c(OC)c2)n1 (stereo not drawn)
Second: COc1cc(Nc2ncnc(NC(=O)NCc3ccccc3)n2)cc(OC)c1OC
The IC50 of the first is higher: greater than 4.5 mg/L for the first, 0.4 to 2.4 mg/L (≈ 0.975 to 5.85 µM) for the second.

Compared with `N#CCc1ccc(Nc2ncnc(Nc3ccc4c(cnn4Cc4ccccc4)c3)n2)cc1`, `CN1CCN(Cc2cccc(Nc3ncnc(Nc4ccc5c(cnn5Cc5ccccc5)c4)n3)c2)CC1` is higher in IC50: less than 0.4 mg/L for the first, greater than 4.5 mg/L for the second.

`COc1cccc(Nc2ncnc(-c3ccccc3)n2)c1` and `NC(=O)c1ccc(Nc2ncnc(-c3ccccc3)n2)cc1` cannot be ordered by IC50: greater than 4.5 mg/L for the first, greater than 4.5 mg/L for the second.

Compared with `C#Cc1cccc(Nc2ncnc(Nc3cc(-c4ccccc4)n[nH]3)n2)c1`, `COc1cc(Nc2ncnc(Nc3cc(-c4ccc(Cl)cc4)n[nH]3)n2)cc(OC)c1OC` is higher in IC50: 0.4 to 2.4 mg/L (≈ 1.13 to 6.79 µM) for the first, 2.4 to 3.5 mg/L (≈ 5.29 to 7.71 µM) for the second.

`COc1ccc2c(c1)nc(Cl)n2-c1ncnc(Nc2cc(OC)c(OC)c(OC)c2)n1.COc1ccc2nc(Cl)n(-c3ncnc(Nc4cc(OC)c(OC)c(OC)c4)n3)c2c1` and `COc1cc(Nc2ncnc(-n3c(N)nc4cc(C(F)(F)F)ccc43)n2)cc(OC)c1OC.COc1cc(Nc2ncnc(-n3c(N)nc4ccc(C(F)(F)F)cc43)n2)cc(OC)c1OC` cannot be ordered by IC50: greater than 4.5 mg/L for the first, greater than 4.5 mg/L for the second.

`c1csc(-c2ncnc(Nc3ccncc3)n2)c1` and `OCc1ccc(Nc2ncnc(-c3ccccc3)n2)cc1` cannot be ordered by IC50: greater than 4.5 mg/L for the first, greater than 4.5 mg/L for the second.

Compared with `COC(=O)c1cccc(Nc2nc3ccccc3n2-c2ncnc(Nc3cc(OC)c(OC)c(OC)c3)n2)c1`, `COc1cc(Nc2ncnc(-n3c(NCc4ccc(F)cc4Cl)nc4ccccc43)n2)cc(OC)c1OC` is lower in IC50: greater than 4.5 mg/L for the first, 3.5 to 4.5 mg/L (≈ 6.53 to 8.4 µM) for the second.

`O=c1[nH]c2ccccc2n1-c1ncnc(Nc2cccc(S(=O)(=O)CCO)c2)n1` and `O=c1[nH]c2ccccc2n1-c1ncnc(Nc2ccc(Cl)cc2Cl)n1` cannot be ordered by IC50: greater than 4.5 mg/L for the first, greater than 4.5 mg/L for the second.

First: COc1cc(Nc2ncnc(Nc3n[nH]c(Nc4ccc(Cl)cc4)n3)n2)cc(OC)c1OC
Second: COc1cc(Nc2ncnc(Nc3[nH]ncc3-c3cccc(Cl)c3)n2)cc(OC)c1OC
The IC50 of the first is lower: 2.4 to 3.5 mg/L (≈ 5.11 to 7.45 µM) for the first, greater than 4.5 mg/L for the second.

First: COc1cc(Nc2ncnc(Nc3ccc(Cl)c4ccccc34)n2)cc(OC)c1OC
Second: COc1cc(Nc2ncnc(NC3CCc4ccccc43)n2)cc(OC)c1OC (stereo not drawn)
The IC50 of the first is lower: less than 0.4 mg/L for the first, 0.4 to 2.4 mg/L (≈ 1.02 to 6.1 µM) for the second.

`COc1cc2ccn(-c3ncnc(Nc4cc(OC)c(OC)c(OC)c4)n3)c2cc1OC` and `COc1ccc2c(ccn2-c2ncnc(Nc3cc(OC)c(OC)c(OC)c3)n2)c1` fall in the same range of IC50: 3.5 to 4.5 mg/L (≈ 8 to 10.3 µM) for the first, 3.5 to 4.5 mg/L (≈ 8.59 to 11 µM) for the second.

Compared with `FC(F)(F)c1ccc(Cl)c(Nc2ncnc(-n3cccc3)n2)c1`, `COc1cc(Nc2ncnc(N3c4ccccc4CC3C)n2)cc(OC)c1OC` (stereo not drawn) is lower in IC50: greater than 4.5 mg/L for the first, 0.4 to 2.4 mg/L (≈ 1.02 to 6.1 µM) for the second.

`COc1ccc(CNc2ncnc(Nc3cc(OC)c(OC)c(OC)c3)n2)cc1` and `COc1cc(Nc2ncnc(NC(=O)NCCc3ccccc3)n2)cc(OC)c1OC` cannot be ordered by IC50: greater than 4.5 mg/L for the first, greater than 4.5 mg/L for the second.

`COc1cc(Nc2ncnc(-n3ccnc3Cl)n2)cc(OC)c1OC` showed an IC50 of 0.4 to 2.4 mg/L (≈ 1.1 to 6.62 µM).
